In ChEMBL document CHEMBL1201862, “PubChem BioAssay data set” (2004):
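Five compound concentrations were applied to cells in 96-well plates for 48 hours; endpoints were derived by simple linear interpolation of the resulting dose-response curve. Abbreviation: GI50, concentration required for 50% inhibition of growth.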 Calls of active or inactive are those of the source. Cut-off read from the data, not from the text of the source: active = GI50 up to about 1.1 µM and inactive = higher.

Experiments:
Assay in all cases: NCI anticancer screen, dose series, 48 h
[1] = system: SK-OV-3
[2] = system: ACHN
[3] = system: RPMI-8226
[4] = system: CCRF-CEM
[5] = system: PC-3
[6] = system: MOLT-4
[7] = system: A549
[8] = system: K562
[9] = system: UO-31
[10] = system: SW-620
[11] = system: HCC 2998
[12] = system: OVCAR-3
[13] = system: NCI/ADR-RES
[14] = system: SR
[15] = system: LOX IMVI
[16] = system: NCI-H460
[17] = system: OVCAR-4
[18] = system: UACC-257
[19] = system: COLO 205
[20] = system: SK-MEL-2
[21] = system: SK-MEL-5
[22] = system: RXF 393
[23] = system: Hs-578T
[24] = system: EKVX
[25] = system: 786-0
[26] = system: KM12
[27] = system: A498
[28] = system: HT-29
[29] = system: MDA-MB-231
[30] = system: OVCAR-8
[31] = system: SK-MEL-28
[32] = system: SNB-75
[33] = system: M14
[34] = system: SNB-19
[35] = system: NCI-H23
[36] = system: NCI-H226
[37] = system: OVCAR-5
[38] = system: U-251
[39] = system: SF-268
[40] = system: Malme-3M
[41] = system: SN12C
[42] = system: UACC-62
[43] = system: CAKI-1
[44] = system: T47D
[45] = system: HOP-62
[46] = system: SF-539
[47] = system: MDA-N
[48] = system: SF-295
[49] = system: MCF7
[50] = system: MDA-MB-435
[51] = system: NCI-H522
[52] = system: DU-145
[53] = system: TK-10
[54] = system: BT-549
[55] = system: HOP-92
[56] = system: HCT-116
[57] = system: HCT-15
[58] = system: IGROV-1
[59] = system: HL-60

Measured: GI50

CC1OC(OC2C(O)COC(OC3C(C)OC(OC4C(OC(=O)[C@]56CCC(C)(C)C[C@@H]5C5=CCC7[C@@]8(C)C[C@H](O)[C@H](OC9OC(CO)C(O)C(OC%10OC(CO)C(O)C(O)C%10O)C9O)[C@@](C)(CO)[C@@H]8CC[C@@]7(C)[C@]5(C)CC6)OCC(O)C4O)C(O)C3O)C2O)C(O)C(O)C1O (stereo partly drawn)
19.7 µM: [57]
inactive: [1] 15.7 µM | [2] 17.7 µM | [3] 18.3 µM | [4] 14.7 µM | [5] 11 µM | [6] 15.5 µM | [7] 14.4 µM | [8] 31.2 µM | [9] 4.17 µM | [10] 14.5 µM | [11] 16.2 µM | [12] 14.9 µM | [13] 14.5 µM | [14] 13.1 µM | [15] 18 µM | [16] 19 µM | [17] 14.9 µM | [18] 18.3 µM | [19] 5.15 µM | [20] 19.8 µM | [21] 16 µM | [22] 12.1 µM | [23] 19.5 µM | [24] 12.8 µM | [25] 16.1 µM | [26] 18.8 µM | [27] 11.8 µM | [28] 17.2 µM | [29] 16.3 µM | [30] 17 µM | [31] 8.75 µM | [32] 18.9 µM | [33] 13 µM | [34] 16.4 µM | [35] 14.9 µM | [36] 23.1 µM | [37] 12.2 µM | [38] 17.5 µM | [39] 21.4 µM | [40] 13.8 µM | [41] 10.6 µM | [42] 22.3 µM | [43] 3.19 µM | [44] 16 µM | [45] 14.3 µM | [46] 18.4 µM | [47] 17.1 µM | [48] 14.4 µM | [49] 16.4 µM | [50] 20.9 µM | [51] 15.5 µM | [52] 14.6 µM | [53] 18.8 µM | [54] 22.4 µM | [55] 20.6 µM | [56] 17.7 µM

O=c1[nH]c(=O)n(C2COC(CO)C2O)cc1F (stereo not drawn)
16.4 µM: [57]
inactive: [1] 74.6 µM | [2] 38.5 µM | [3] 36.5 µM | [4] 74.8 µM | [5] 36.1 µM | [6] 39 µM | [7] 17.3 µM | [8] 56.5 µM | [9] 14.6 µM | [10] 55.3 µM | [58] 32.4 µM | [11] 8.73 µM | [12] 15.5 µM | [13] 72.1 µM | [14] 95.3 µM | [15] 11 µM | [16] 4.98 µM | [17] > 100 µM | [18] 60.4 µM | [19] 25.1 µM | [20] 61.4 µM | [21] 21.4 µM | [22] 2.94 µM | [23] > 100 µM | [24] 89.9 µM | [25] 70 µM | [26] > 100 µM | [27] 5.28 µM | [28] 39 µM | [29] > 100 µM | [30] 57 µM | [31] 26.7 µM | [32] 31 µM | [33] 50.6 µM | [34] > 100 µM | [35] 15.1 µM | [36] > 100 µM | [37] > 100 µM | [38] 72.9 µM | [39] 64.3 µM | [40] 9.29 µM | [41] 28.3 µM | [42] 22.1 µM | [43] > 100 µM | [44] 50.6 µM | [45] 17.7 µM | [46] 3.52 µM | [47] 25.2 µM | [48] 30.5 µM | [49] 8.41 µM | [50] 48.9 µM | [51] 43.7 µM | [52] 29.8 µM | [53] 68.1 µM | [54] 32.7 µM | [55] 50.8 µM | [56] 9.98 µM

CC(C)(C)c1cc(O)ccc1O [E319]
active: [14] 1.1 µM | [38] 0.675 µM
inactive: [1] > 100 µM | [2] > 85.5 µM | [3] 38.2 µM | [4] 4.92 µM | [5] 1.57 µM | [6] 10.3 µM | [7] > 100 µM | [8] > 68.5 µM | [9] > 58.6 µM | [10] 37.8 µM | [58] > 100 µM | [11] > 10.5 µM | [12] 43.6 µM | [13] > 79.6 µM | [15] > 59.3 µM | [16] > 12.8 µM | [17] > 56.4 µM | [18] 9.08 µM | [19] > 74.6 µM | [20] 1.71 µM | [21] > 100 µM | [23] > 24 µM | [24] > 100 µM | [25] > 54.8 µM | [26] > 100 µM | [27] > 100 µM | [28] > 100 µM | [29] 1.86 µM | [30] > 63.7 µM | [31] > 100 µM | [32] 7.71 µM | [33] > 100 µM | [34] > 100 µM | [35] > 100 µM | [36] > 65.5 µM | [37] > 100 µM | [39] > 18.7 µM | [40] > 19.3 µM | [41] > 100 µM | [42] > 100 µM | [43] > 57.8 µM | [44] 3.83 µM | [45] > 100 µM | [46] > 100 µM | [47] > 100 µM | [48] > 100 µM | [49] > 100 µM | [59] 9.73 µM | [50] > 56.8 µM | [51] 5.57 µM | [52] 10.1 µM | [53] 8.32 µM | [54] > 100 µM | [55] > 67.5 µM | [56] > 57.9 µM
> 100 µM: [57]
